In patent publication US11279690B2, “Inhibitors of glutaminyl cyclase” (VIVORIAN THERAPEUTICS N.V, priority 2017, dated 2022):

Legend:
hQPCTL = hQPCTL (Homo sapiens, UniProt Q9NXS2); assay: Inhibitor assay, determination of Ki against the QC isoenzyme at pH 6; type: biochemical; conditions: read-out: Ki hQPCTL pH6
Description: (§1) For inhibitor testing, the sample composition was the same as described above, except of the putative inhibitory compound added. For a rapid test of QC-inhibition, samples contained 4 mM of the respective inhibitor and a substrate concentration at 1 KM. For detailed investigations of the inhibition and determination of Ki-values, influence of the inhibitor on the auxiliary enzymes was investigated first. […] The inhibitory constant was evaluated by fitting the set of progress curves to the general equation for competitive inhibition using GraFit software. The inhibitor assay was performed at two different pH levels, pH 6.0 and pH 8.0: The respective pH value in the assay solution was adjusted using conventional methods.

hQC = hQC (Homo sapiens, UniProt Q16769); assay: QC inhibitor assay, determination of Ki at pH 6.0; type: biochemical; conditions: read-out: Ki hQC pH6.0
Chain of hQC (Q16769 29-361): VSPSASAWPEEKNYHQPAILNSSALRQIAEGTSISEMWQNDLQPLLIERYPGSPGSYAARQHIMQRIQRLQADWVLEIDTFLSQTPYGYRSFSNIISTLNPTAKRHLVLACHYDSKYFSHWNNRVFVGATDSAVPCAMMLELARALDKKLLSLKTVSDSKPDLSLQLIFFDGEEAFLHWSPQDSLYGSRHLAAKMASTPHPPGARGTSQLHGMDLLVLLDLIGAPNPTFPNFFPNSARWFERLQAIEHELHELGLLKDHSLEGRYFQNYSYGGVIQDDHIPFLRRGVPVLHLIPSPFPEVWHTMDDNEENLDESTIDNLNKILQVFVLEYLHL
Description: All measurements were performed with a BioAssay Reader HTS-7000Plus for microplates (Perkin Elmer) at 30° C. QC activity was evaluated fluorometrically using H-Gln-βNA. The samples consisted of 0.2 mM fluorogenic substrate, 0.25 U pyroglutamyl aminopeptidase (Unizyme, Horsholm, Denmark) in 0.2 M Tris/HCl, pH 8.0 containing 20 mM EDTA and an appropriately diluted aliquot of QC in a final volume of […]. Excitation/emission wavelengths were 320/410 nm. The assay reactions were initiated by addition of glutaminyl cyclase. QC activity was determined from a standard curve of β-naphthylamine under assay conditions. One unit is defined as the amount of QC catalyzing the formation of 1 μmol pGlu-βNA from H-Gln-βNA per minute under the described conditions.
In a second fluorometric assay, QC was activity determined using H-Gln-AMC as substrate. Reactions were carried out at 30° C. utilizing the NOVOStar reader for microplates (BMG labtechnologies). The samples consisted of varying concentrations of the fluorogenic substrate, 0.1 U pyroglutamyl aminopeptidase (Qiagen) in 0.05 M Tris/HCl, pH 8.0 containing 5 mM EDTA and an appropriately diluted aliquot of QC in a final volume of 250 μl. Excitation/emission wavelengths were 380/460 nm. The assay reactions were initiated by addition of glutaminyl cyclase. QC activity was determined from a standard curve of 7-amino-4-methylcoumarin under assay conditions. The kinetic data were evaluated using GraFit software.
This novel assay was used to determine the kinetic parameters for most of the QC substrates. […] Samples consisted of the respective QC substrate, 0.3 mM NADH, 14 mM α-Ketoglutaric acid and 30 U/ml glutamate dehydrogenase in a final volume of 250 μl. Reactions were started by addition of QC and persued by monitoring of the decrease in absorbance at 340 nm for 8-15 min.
The initial velocities were evaluated and the enzymatic activity was determined from a standard curve of ammonia under assay conditions. All samples were measured at 30° C., using either the […]luor Plus or the Sunrise (both from TECAN) reader for microplates. Kinetic data was evaluated using GraFit software.
as §1

[1] = Pharmacokinetic parameters in mice, plasma, brain and CSF after oral administration; type: in vivo, mice (strain CD-1); conditions: mice (CD-1), 30 mg/kg orally in 0.8% Methocel
Description: Three mice (strain CD-1) were administered orally 30 mg/kg of each test compound dissolved in 0.8% Methocel. Samples were taken at the time points 10 min, 0.5, 1, 2, 4 and 8 hr after test compound administration for plasma and brain collection.
The mice were anesthetized with Isoflurane. Approximate […] of each blood sample were collected via cardiac puncture for terminal bleeding into K2EDTA tubes. Blood samples were put on ice and centrifuged at 2000 g for 5 min to obtain plasma sample within 15 minutes. CSF collection: The animals were euthanized with pure CO2 inhalation. A mid line incision was made on the neck. The muscle under the skin was cut to expose the cisterna magna. The cisterna magna was penetrated with the sharp end of a capillary and CSF was collected via capillarity.
After CSF collection, a perfusion with 7x total mouse blood volume (approximate 15 ml) of ice-cold PBS (pH 7.4) was conducted via cardiac puncture before brain collection. A mid-line incision was made in the animal scalp. The brain was removed and rinsed with cold saline. Brain was placed into a screw-top tube and weighed. Brain samples were homogenized for 2 min with 3 volumes (v/w) of PBS (pH 7.4) and then analyzed with LC-MS/MS. The brain concentration was corrected with a dilution factor of 4 as following: Brain concentration=brain homogenate conc.×4, assuming 1 g wet brain tissue equals to 1 ml.
Plasma, brain and CSF samples were stored at approximately −80° C. until analysis.
For plasma samples: An aliquot of 20 μl sample was added with 200 μ IS (Diclofenac, 200 ng/mL) in ACN, the mixture was vortexed for 2 min and centrifuged at 12.000 rpm for 5 min. 1 μl supernatant was injected for LC-MS/MS analysis.
For diluted plasma samples: An aliquot of 4 μl sample was added with 16 μl blank plasma, mixed well, added with 200 μl IS (Diclofenac, 200 ng/ml) in ACN.
For Brain samples: Brain tissue was homogenized for 2 min with 3 volumes (v/w) of PBS. An aliquot of 20 μl sample was added with 200 μl IS (Diclofenac, 200 ng/ml) in ACN, the mixture was vortexed for 2 min and centrifuged at 12000 rpm for 5 min. 1 μl supernatant was injected for LC-MS/MS analysis.
For CSF samples: The CSF sample was added with corresponding 20 fold volume of IS (Diclofenac, 200 ng/ml) in ACN, the mixture was vortexed for 2 min. 3 μl supernatant was injected for LC-MS/MS analysis.

Chain of hQPCTL (Q9NXS2 whole entry): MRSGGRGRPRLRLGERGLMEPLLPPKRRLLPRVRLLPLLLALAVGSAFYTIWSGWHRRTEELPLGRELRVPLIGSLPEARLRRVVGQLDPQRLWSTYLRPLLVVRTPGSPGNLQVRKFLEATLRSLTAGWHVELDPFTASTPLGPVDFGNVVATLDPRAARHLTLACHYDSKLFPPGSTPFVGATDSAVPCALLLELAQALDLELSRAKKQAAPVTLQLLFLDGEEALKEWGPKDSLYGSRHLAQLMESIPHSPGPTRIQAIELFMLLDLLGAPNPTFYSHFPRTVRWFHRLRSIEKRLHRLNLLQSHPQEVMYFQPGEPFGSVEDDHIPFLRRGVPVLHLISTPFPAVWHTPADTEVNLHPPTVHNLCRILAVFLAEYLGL

| Structure (SMILES) | Ki (hQPCTL) | Ki (hQC) | blood-brain-barrier crossing behaviour [1] | AUC-values in the brain [1] | melting point |
| --- | --- | --- | --- | --- | --- |
| O=C1CC(c2ccccc2)N1c1ccc2[nH]cnc2c1 (racemic) [Example 1, 1-(1H-benzo[d]imidazol-5-yl)-4-phenylazetidin-2-one] | 33.4 nM | 170 nM |  |  |  |
| COc1cc(F)c(C2CC(=O)N2c2ccc3nc[nH]c3c2)c(F)c1 (racemic) [Example 4, 1-(1H-benzo[d]imidazol-5-yl)-4-(2,6-difluoro-4-methoxyphenyl)azetidin-2-one] | 2.5 nM | 8.6 nM | good | good |  |
| O=C1C[C@H](c2ccccc2)N1c1ccc2nc[nH]c2c1 [Example 2, (R)-1-(1H-benzo[d]imidazol-6-yl)-4-phenylazetidin-2-one] | 6.9 nM | 20.8 nM |  |  |  |
| O=C1C[C@H](c2ccc(OCCC(F)F)cc2F)N1c1ccc2[nH]cnc2c1 [Example 5, (R)-4-(4-(3,3-difluoropropoxy)-2-fluorophenyl)-1-(1H-benzo[d]imidazol-5-yl)azetidin-2-one] | 0.86 nM | 3.3 nM | good | good | 150 to 155 °C |
| O=C1C[C@@H](c2ccc(OCCC(F)F)cc2F)N1c1ccc2[nH]cnc2c1 [Example 6, (S)-4-(4-(3,3-difluoropropoxy)-2-fluorophenyl)-1-(1H-benzo[d]imidazol-5-yl)azetidin-2-one] |  |  |  |  | 137 to 142 °C |
| O=C1C[C@H](c2ccc(OCCC(F)F)c(F)c2F)N1c1ccc2[nH]cnc2c1 [Example 7, (R)-4-(4-(3,3-difluoropropoxy)-2,3-difluorophenyl)-1-(1H-benzo[d]imidazol-5-yl)azetidin-2-one] | 1.1 nM | 2.4 nM | good | good | 165 to 170 °C |
| O=C1C[C@@H](c2ccc(OCCC(F)F)c(F)c2F)N1c1ccc2[nH]cnc2c1 [Example 8, (S)-4-(4-(3,3-difluoropropoxy)-2,3-difluorophenyl)-1-(1H-benzo[d]imidazol-5-yl)azetidin-2-one] |  |  |  |  | 148 to 153 °C |
| O=C1C[C@H](c2c(F)cc(OCCC(F)F)cc2F)N1c1ccc2[nH]cnc2c1 [Example 9, (R)-4-(4-(3,3-difluoropropoxy)-2,6-difluorophenyl)-1-(1H-benzo[d]imidazol-5-yl)azetidin-2-one] |  |  | good | good |  |
| CC(F)(F)COc1ccc([C@H]2CC(=O)N2c2ccc3[nH]cnc3c2)c(F)c1 [Example 11, (R)-4-(4-(2,2-difluoropropoxy)-2-fluorophenyl)-1-(1H-benzo[d]imidazol-5-yl)azetidin-2-one] | 1.3 nM | 3.8 nM | good | good | 165 to 170 °C |
| CC(F)(F)COc1ccc([C@@H]2CC(=O)N2c2ccc3[nH]cnc3c2)c(F)c1 [Example 12, (S)-4-(4-(2,2-difluoropropoxy)-2-fluorophenyl)-1-(1H-benzo[d]imidazol-5-yl)azetidin-2-one] |  |  |  |  | 203 to 208 °C |
| CC(F)(F)COc1ccc([C@H]2CC(=O)N2c2ccc3[nH]cnc3c2)c(F)c1F [Example 13, (R)-4-(4-(2,2-difluoropropoxy)-2,3-difluorophenyl)-1-(1H-benzo[d]imidazol-5-yl)azetidin-2-one] | 2 nM | 2.3 nM | good | good | 173 to 177 °C |
| CC(F)(F)COc1ccc([C@@H]2CC(=O)N2c2ccc3[nH]cnc3c2)c(F)c1F [Example 14, (S)-4-(4-(2,2-difluoropropoxy)-2,3-difluorophenyl)-1-(1H-benzo[d]imidazol-5-yl)azetidin-2-one] |  |  |  |  | 170 to 174 °C |
| CC(F)(F)COc1cc(F)c([C@H]2CC(=O)N2c2ccc3[nH]cnc3c2)c(F)c1 [Example 15, (R)-4-(4-(2,2-difluoropropoxy)-2,6-difluorophenyl)-1-(1H-benzo[d]imidazol-5-yl)azetidin-2-one] | 0.3 nM | 3.6 nM | good | good | 158 to 162 °C |
| CC(F)(F)COc1cc(F)c([C@@H]2CC(=O)N2c2ccc3[nH]cnc3c2)c(F)c1 [Example 16, (S)-4-(4-(2,2-difluoropropoxy)-2,6-difluorophenyl)-1-(1H-benzo[d]imidazol-5-yl)azetidin-2-one] |  |  |  |  | 163 to 166 °C |
